The values that follow are results of earlier work, collected in patent publication US20090036541A1, “Applicator and chemical combination for better topical anesthesia” (priority 2007, published 2009).

The conditions of this data set: compared with lidocaine.

Take `CCCCNc1ccc(C(=O)OCCN(C)C)cc1` [tetracaine]: the “potency relative to lidocaine” value was “ten-fold”.
